Measurements from patent US4732970A, “Antitumor amino acid and peptide derivatives of 1,4-bis(aminoalkyl and hydroxy-aminoalkyl)amino)-5,8-dihydroxyanthraquinones” (priority 1986, dated 1988).

Experiments:
[1] = test system: melanotic melanoma B16 tumor; assay: Melanotic Melanoma B16 test; type: in vivo, BDF1 mice; conditions: dose 1.5 mg/kg intraperitoneally on days 1, 5 and 9
Procedure: The animals used were BDFl mice, all of the same sex, weighing a minimum of 17 g and all within a 3 g weight range. There were 12 animals per test group. A 1 g portion of melanotic melanoma B16 tumor was homogenized in 10 ml of cold balanced salt solution and a 0.5 ml aliquot of the homogenate was implanted intraperitoneally into each of the test mice. The test compounds were administered intraperitoneally on days 1, 5 and 9 (relative to tumor inoculation) at various doses. The animals were weighed and survivors recorded on a regular basis for 60 days. The median survival time and ratio of survival time for treated (T)/control (C) animals were calculated. The positive control compound was 1,4-bis[(2-aminoethyl)amino]-5,8-dihydroxyanthraquinone, dihydrochloride (U.S. patent application Ser. No. 87,354, filed Oct. 23, 1979).

[2] = test system: lymphocytic leukemia P388; assay: Lymphocytic Leukemia P388 Test; type: in vivo, BDF1 mice; conditions: for Median Survival: BDF1 mice; for T/C × 100 (%): ratio of survival time treated/control
Procedure, shortened: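 BDF1 mice (5–6 per group) were inoculated i.p. with 10^6 P388 cells, then dosed i.p. on days 1, 5 and 9 at various doses. Survival was followed for 60 days, and median survival time and the treated/control (T/C) survival ratio were calculated.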

[3] = dose 0.75 mg/kg intraperitoneally on days 1, 5 and 9
[4] = dose 1.5 mg/kg intraperitoneally on days 1, 5 and 9
[5] = dose 3 mg/kg intraperitoneally on days 1, 5 and 9

| Compound | Median Survival ([1]; BDF1 mice) [days] | T/C × 100 (%) ([1]; ratio of survival time treated/control) | Median Survival [2, 3] [days] | T/C × 100 (%) [2, 3] [%] | Median Survival [2, 4] [days] | T/C × 100 (%) [2, 4] [%] | Median Survival [2, 5] [days] | T/C × 100 (%) [2, 5] [%] |
| --- | --- | --- | --- | --- | --- | --- | --- | --- |
| Cl.Cl.NCCNc1ccc(NCCN)c2c1C(=O)c1c(O)ccc(O)c1C2=O [1,4-bis[(2-aminoethyl)amino]-5,8-dihydroxyanthraquinone, dihydrochloride, reference compound] | 46.5 | 274 |  |  |  |  |  |  |
| Br.Br.Br.Br.C[C@H](N)C(=O)N[C@@H](CCCNC(=N)N)C(=O)NCCNc1ccc(NCCNC(=O)[C@H](CCCNC(=N)N)NC(=O)[C@H](C)N)c2c1C(=O)c1c(O)ccc(O)c1C2=O [Example 88, N,N'-[(9,10-Dihydro-5,8-dihydroxy-9,10-dioxo-1,4-anthracenediyl)bis(imino-2,1-ethanediyl)]bis-[L-alanyl-L-argininamide]tetrahydrobromide] |  |  | 22.5 | 225 | 33.0 | 330 | 44.0 | 440 |
| Br.Br.C[C@H](NC(=O)OC(C)(C)C)C(=O)N[C@@H](C)C(=O)N[C@@H](CCCNC(=N)N)C(=O)NCCNc1ccc(NCCNC(=O)[C@H](CCCNC(=N)N)NC(=O)[C@H](C)NC(=O)[C@H](C)NC(=O)OC(C)(C)C)c2c1C(=O)c1c(O)ccc(O)c1C2=O [Example 89, N,N'-[(9,10-Dihydro-5 8-dihydroxy-9,10-dioxo-1,4-anthracenediyl)bis(imino-2,1-ethanediyl)]bis[N-[(1,1-dimethylethoxy)carbonyl]-L-alanyl-L-alanyl-L-argininamide]-dihydrobromide] |  |  | 17.0 | 155 | 17.5 | 159 | 24.5 | 223 |
| Br.Br.C[C@H](N)C(=O)N[C@@H](C)C(=O)N[C@@H](CCCNC(=N)N)C(=O)NCCNc1ccc(NCCNC(=O)[C@H](CCCNC(=N)N)NC(=O)[C@H](C)NC(=O)[C@H](C)N)c2c1C(=O)c1c(O)ccc(O)c1C2=O.O=C(O)C(F)(F)F.O=C(O)C(F)(F)F [Example 90, N,N'-[(9,10-Dihydro-5,8-dihydroxy-9,10-dioxo-1,4-anthracenediyl)bis(imino-2,1-ethanediyl)]bis[L-alanyl-L-alanyl-L-argininamide], dihydrobromide, bis(trifluoroacetate)] |  |  | 23.5 | 214 | 23.5 | 214 | 19.5 | 177 |
| Br.Br.C[C@H](NC(=O)[C@H](CO)NC(=O)[C@H](CCCNC(=N)N)NC(=O)OCc1ccccc1)C(=O)NCCNc1ccc(NCCNC(=O)[C@H](C)NC(=O)[C@H](CO)NC(=O)[C@H](CCCNC(=N)N)NC(=O)OCc2ccccc2)c2c1C(=O)c1c(O)ccc(O)c1C2=O [Example 93, N,N'-[(9,10-Dihydro-5,8-dihydroxy-9,10-dioxo-1,4-anthracencdiyl)bis(imino-2,1-ethanediyl)][L-alanyl-L-seryl-carbobenzyloxy-L-argininamide]dihydrobromide] |  |  | 22.0 | 200 | 22.5 | 205 | 24.5 | 223 |
| Br.Br.Br.Br.C[C@H](NC(=O)[C@H](CO)NC(=O)[C@@H](N)CCCNC(=N)N)C(=O)NCCNc1ccc(NCCNC(=O)[C@H](C)NC(=O)[C@H](CO)NC(=O)[C@@H](N)CCCNC(=N)N)c2c1C(=O)c1c(O)ccc(O)c1C2=O [Example 94, N,N'-[(9,10-Dihydro-5,8-dihydroxy-9,10-dioxo-1,4-anthracenediyl)bis(imino-2,1-ethanediyl)]bis[L-arginyl-L-seryl-L-alaninamide], tetrahydrobromide] |  |  | 21.5 | 195 | 21.0 | 191 | 34.5 | 314 |
| N,N'-[(9,10-Dihydro-5,8-dihydroxy-9,10-dioxo-1,4-anthracenediyl)bis(imino-2,1-ethanediyl)]bis[L-alanyl-L-alanine]bis(trifluoroacetate) [Example 72] |  |  | 20.0 | 190 | 20.0 | 190 | 23.0 | 219 |
| N,N'-[(9,10-Dihydro-5,8-dihydroxy-9,10-oxo-1,4-anthracenediyl)bis(imino-2,1-ethanediyl) ]bis[L-arginine(phenylmethyl)]ester, dihydrobromide [Example 85] |  |  | 21.5 | 179 | 21.0 | 175 | 22.5 | 188 |
| [S-(R*,R*)][(9,10-Dihydro-5,8-dihydroxy-9,10-dioxo-1,4-anthracenediyl)bis[1-[3-[[imino(nitroamino)methyl]amino]propyl]-2-oxo-2,1-ethanediyl]]bis-carbamic acid, bis(phenylmethyl)ester [Example 91] |  |  | 15.5 | 141 | 16.5 | 150 | 18.0 | 164 |
| [S-(R*,R*)][(9,10-Dihydro-5,8-dihydroxy-9,10-dioxo-1,4-anthracenediyl)bis[imino-2,1-ethanediylimino[1-[3-[[imino[[(phenylmethoxy)carbonyl]amino]methyl][(phenylmethoxy)carbonyl]propyl]-2-oxo-2,1-ethanediyl]]]carbamic acid, bis(phenylmethyl)ester [Example 95] |  |  | 14.0 | 127 | 16.0 | 145 | 16.0 | 145 |
